Measured values as given in patent US12390423B2 (priority 2019, dated 2025).

Columns and labels:
[1] = Intraperitoneal glucose and insulin tolerance tests (GTT, ITT) and HOMA-IR in DIO mice; format: in vivo, C57BL/6J mice; settings: HFD mice, AvoB 100 mg/kg b.w. twice weekly
Experimental: Intraperitoneal glucose and insulin tolerance tests (GTT and ITT) were performed 8 hours after food withdrawal. For GTT, a glucose dose of 1.5 g/kg was used for mice on both HFD and standard diet. For ITT, an insulin (Humulin, Eli Lilly, USA) dose of 1 U/kg and 0.25 U/kg was used for mice on HFD and standard diet, respectively. Blood glucose levels were determined at 0, 10, 20, 30, 60, and 90 minutes after glucose/insulin administration via tail bleed using the OneTouch Blood Ultra 2 glucose meters (LifeScan Europe, Switzerland).
The homeostasis model assessment was used to calculate the insulin resistance (HOMA-IR) index^60 using the values of fasting plasma glucose (FPG) and fasting plasma insulin (FPI) as follows: […]; HOMA-IR=FPGxFPI/22.5, with FPG expressed as mmol/L and FPI as mIU/L.

C2C12 myotubes [2] = test: Fatty acid oxidation ([1-14C]-palmitate) in C2C12 myotubes; format: cell-based, mouse; settings: 25 μM AvoB, 0.5 mM palmitate-BSA/1 mM L-carnitine, 24 h
Experimental: FAO in cell lines was determined using established methods. […] [1-^14C]-palmitate was prepared and applied to cells as follows: purchased stock supplied in ethanol (PerkinElmer, MA, USA) was dried in vacuo and then re-suspended in a solution containing unlabeled carrier in BSA to yield a mixture of 7% BSA [w/v], 2.5 mM palmitate with [1-^14C]-palmitate at a final concentration of 10 μCi/mL. Following a 16 hour incubation at 37° C., the solution containing radiolabeled palmitate was diluted with respective serum free cell culture media (low glucose RPMI media for INS-1 (832/13) cells and low glucose DMEM for C2C12 myotubes) containing 1 mM L-carnitine to a final concentration of 0.3% BSA, 100 μM palmitate, and 0.4 μCi/mL [1-^14C]-palmitate. Following incubation of treated cells with [1-^14C]-palmitate, 400 μL of well media was transferred to acidification vials containing perchloric acid and capped with CO2 filter traps impregnated with 1M NaOH. […] The CO2 trap was transferred to scintillation vials containing 4 mL of scintillation fluid and complete FAO was quantified using a Tri-Carb 2910 TR liquid scintillation analyzer (PerkinElmer). The amount of radioactivity in the media was also determined after pelleting cells and debris (14,000×g, 10 min); this quantified acid soluble metabolites (ASMs), an indirect measure of incomplete FAO.

INS-1 (832/13) cells = test: Glucose oxidation (D-[14C(U)]-glucose) in INS-1 (832/13) cells; format: cell-based, rat; settings: 25 μM AvoB, lipotoxic conditions, vs palmitate only
Experimental: (§1) C2C12 myotubes and INS-1 (832/13) cells treated as in the FAO assays described above and then incubated with D-[^14C(U)]-glucose (0.58 μC/mL) and unlabeled glucose (final glucose concentration 200 μM) for 4 h subsequent to which [^14C]—CO2 (representing complete glucose oxidation) and ASMs (representing incomplete glucose oxidation) were captured and quantified as described in the FAO method. For C2C12 myotubes, glucose oxidation and uptake was measured with and without a 30 min pre-incubation with 100 nM insulin to determine basal and insulin-mediated glucose oxidation or uptake, respectively.

C2C12 myotubes [3] = test: Glucose oxidation and 2-NBDG glucose uptake in C2C12 myotubes; format: cell-based, mouse
Experimental: as §1
To measure glucose uptake in C2C12 myotubes, a fluorescent D-glucose analog 2-(N-[7-nitrobenz-2-oxa-1,3-diazol-4-yl]amino)-2-deoxy-D-glucose (2-NBDG) was utilized. Briefly, myotubes were treated for 24 h with test compound after which they were washed twice with PBS and starved for 1 h in serum and glucose free DMEM. Following starvation, 100 nM insulin was added for 30 min after which 60 μM 2-NBDG was added to each well and allowed to incubate for 30 min. The 2-NBDG uptake reaction was then stopped by removing the incubation medium and washing the cells twice with PBS after which the cells were trypsinized and collected for flow cytometry analysis (Guava 8HT; EMD Millipore, Billerica, MA).

C2C12 myotubes [4] = test: Mitochondrial ROS (MitoSOX) and membrane potential (JC-1) in C2C12 myotubes; format: cell-based, mouse; settings: 25 μM AvoB, 0.5 mM palmitate, 24 h
Experimental: For all ROS studies, INS-1 (832/13) cells and C2C12 myotubes were treated with or without palmitate and FAO inhibitors for 24 h in low glucose cell culture media as described for the FAO assay. After treatment, cells were trypsinized and re-suspended in PBS containing 5 μM of the fluorescent dye MitoSOX® (Molecular Probes, Invitrogen) and allowed to incubate for 5-15 minutes in a humidified atmosphere containing 5% CO2 at 37° C. Cells were then washed in PBS, placed in a 96 well plate and fluorescence was measured by flow cytometry. ROS was quantified by normalizing the mean fluorescence values of live gated cells to vehicle control. Mitochondrial membrane potential (MMP) in INS-1 (832/13) and C2C12 myotubes was measured using the cationic fluorescent dye JC-1 (Molecular Probes). […] JC-1 fluoresces green in the cytosol where it exists as a monomer, after entering the mitochondria JC-1 monomers form J aggregates and fluoresce red, thus the red/green fluorescence ratio is used to determine MMP. […] Cells were then washed in PBS, placed in a 96 well plate and fluorescence was measured by flow cytometry. MMP was quantified by normalizing the mean fluorescence values of live gated cells to vehicle control. […] Cells were treated, washed and collected as described and incubated with 0.35 μM NAO and green fluorescence was measured using flow cytometry. […]

C2C12 myotubes [5] = test: Cellular ATP content in C2C12 myotubes; format: cell-based, mouse; settings: 0.5 mM palmitate 24 h, AVO 25 μM, DCA 1 mM, TRI 25 μM
Experimental: Total cellular ATP content was determined using the ATP bioluminescent assay kit (Calbiochem, 119107). Briefly, cells were seeded in white walled 96-well plates (1.2×10^4 cells/well for INS-1 and 2×10^4 cells/well for C2C12) and treated for 24 h (C2C12 cells were differentiated for 5 days prior to treatments whereas INS-1 cells were treated 24 h after seeding). After treatment, culture media was removed, and cells were lysed with nucleotide releasing buffer with gentle shaking for 5 min. ATP monitoring enzyme was then added to cell lysates and plates and luminescence was read in a Biotek Synergy HT spectrophotometer (Biotek; Winooski, VT).

In the case of avocatin B [AvoB], the HOMA-IR index [1] was “comparable to lean, STD mice”, the “Glucose tolerance (GTT, AUC)” value ([1]; vs HFD-control, i.p. glucose 1.5 g/kg) was “significantly improved glucose tolerance” and the “Whole body insulin sensitivity (ITT, AUC)” value ([1]; vs HFD-control, i.p. insulin) was “greater insulin sensitivity”. For the same substance, the “Complete FAO ([1-14C]-palmitate oxidation to CO2)” value (C2C12 myotubes [2]) was “inhibited complete FAO”, the “Incomplete FAO (ASM levels)” value (C2C12 myotubes [2]) was “did not increase incomplete FAO” and the “Glucose oxidation (D-[14C(U)]-glucose to CO2)” value (INS-1 (832/13) cells) was “greater glucose oxidation compared to cells treated with palmitate only”. The “Insulin stimulated glucose uptake (2-NDBG)” value (C2C12 myotubes [3]; 25 μM AVO, 0.5 mM palmitate 24 h, vs palmitate only) was “increased glucose uptake compared to palmitate only treated cells”, the “Basal and insulin stimulated glucose oxidation (D-[14C(U)]-glucose to CO2)” value (C2C12 myotubes [3]; 25 μM AvoB, excess palmitate, 24 h) was “increased basal and insulin stimulated glucose oxidation” and the “Mitochondrial membrane potential (MMP, JC-1)” value (C2C12 myotubes [4]) was “lowers palmitate induced increases”. The “Mitochondrial superoxide levels (MitoSOX Red)” value (C2C12 myotubes [4]) was “lowers palmitate induced increases in mitochondrial superoxide levels” and the “Total cellular ATP content” value (C2C12 myotubes [5]) was “restored cellular ATP content to that of control cells”.
